Results as given in the kinase profiling compilation of Christmann-Franck et al. (2016).

Test system: SGK1 (human), O00141 [S422D]
Assay: radiometric filter-binding kinase assay, Kinase HotSpot
Settings: compound 0.5 µM; ATP 10 µM

SGK1 (human), O00141 [S422D], sequence (O00141 whole entry S422D, looked up): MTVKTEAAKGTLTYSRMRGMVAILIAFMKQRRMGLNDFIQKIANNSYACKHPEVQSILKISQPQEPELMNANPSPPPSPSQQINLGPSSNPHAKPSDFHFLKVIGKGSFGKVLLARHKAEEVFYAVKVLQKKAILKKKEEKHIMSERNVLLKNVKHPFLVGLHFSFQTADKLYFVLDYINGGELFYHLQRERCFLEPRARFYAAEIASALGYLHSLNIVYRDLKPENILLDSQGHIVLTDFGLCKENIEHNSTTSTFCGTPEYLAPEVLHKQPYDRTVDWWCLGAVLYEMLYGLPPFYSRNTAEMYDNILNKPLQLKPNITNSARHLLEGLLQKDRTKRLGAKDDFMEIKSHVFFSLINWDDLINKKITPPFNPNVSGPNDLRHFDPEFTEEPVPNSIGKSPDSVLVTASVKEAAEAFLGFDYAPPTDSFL

| Structure (SMILES) | residual activity [%] |
| --- | --- |
| O=c1cc(N2CCNCC2)oc2c(-c3ccccc3)cccc12 | 103 |
| NC(=O)c1ccc(N(C(N)=O)c2c(F)cccc2F)nc1-c1ccc(F)cc1F | 121 |
| COc1cc2ncnc(Nc3ccc(F)c(Cl)c3)c2cc1OCCCN1CCOCC1 | 131 |
| c1ccc2c(-c3ccncc3)c[nH]c2c1 | 93.8 |
| Fc1ccc(-c2nc3n(c2-c2ccncc2)CCS3)cc1 | 100 |
| COc1ccc(OC)c2c(=S)c3ccccc3[nH]c12 | 125 |
| Nc1nnc2[nH]c3ccccc3nc1-2 | 114 |
| O=C(c1cc2cc(O)ccc2[nH]1)c1cc2cc(O)ccc2[nH]1 | 74.2 |
| Cc1ccc(S(=O)(=O)/C=C/C#N)cc1 | 98.7 |
| CNC(=O)c1cc(Oc2ccc(NC(=O)Nc3ccc(Cl)c(C(F)(F)F)c3)cc2)ccn1 | 95.2 |
| Nc1ncnc2[nH]nc(Nc3ccc(F)cc3)c12 | 91.5 |
| c1ccc(-c2n[nH]c3c2oc2ccccc23)cc1 | 101 |
| CCCNC(=O)Nc1ccc(Oc2ncnc3cc(OC)c(OC)cc23)cc1Cl | 96.2 |
| O=C1Cc2c([nH]c3ccc([N+](=O)[O-])cc23)-c2ccccc2N1 | 96 |
| O=C(Nc1cccc(Nc2nccc(Nc3cccc(C(F)(F)F)c3)n2)c1)C1CC1 | 103 |
| CCCC(=O)Oc1ccc2[nH]c(C(=O)c3cc4ccccc4[nH]3)cc2c1 | 97 |
| COc1cc2ncnc(Nc3ccc(Oc4ccccc4)cc3)c2cc1OC | 103 |
| CNc1cc2c(Nc3cccc(Br)c3)ncnc2cn1 | 94.4 |
| O=C1NC(=O)/C(=C\c2ccc3nccnc3c2)S1 | 95 |
| O=C1c2ccccc2-c2nc3nnnn3nc21 | 67.2 |
| O=C1NC(=O)c2c1c1c3ccccc3n3c1c1c2c2ccccc2n1C1CCC3O1 | 23.8 |
| CC(C)[C@H](CO)Nc1nc(Nc2cc(N)cc(Cl)c2)c2ncn(C(C)C)c2n1 | 93.1 |
| N#Cc1c[nH]c2c[nH]/c(=N\Cc3cccnc3)cc2/c1=N\c1ccc(F)c(Cl)c1 | 93.2 |
| O=C1Nc2ccccc2/C1=C1\Nc2ccccc2\C1=N/O | 69.1 |
| O=C1Nc2ccc(Cl)cc2/C1=C/c1cc(Cl)c(O)c(Cl)c1 | 91.3 |
| O=C(O)/C=C/c1cc(Br)c(Br)c(Br)c1Br | 76.7 |

| Structure (SMILES) | residual activity [%] |
| --- | --- |
| Nc1cccc(-c2cc3c(Oc4cccc(O)c4)ncnc3[nH]2)c1 | 101 |
| CN(C)C[C@H]1CCn2c(c(C3=C(c4cn(C)c5ccccc45)C(=O)NC3=O)c3ccccc32)C1 | 72.9 |
| CCOC(=O)c1c(C)[nH]c(/C=C2\C(=O)Nc3ccccc32)c1C | 92 |
| O=c1cc(N2CCOCC2)oc2c1ccc1ccccc12 | 98 |
| CO[C@@H]1[C@H](N(C)C(=O)c2ccccc2)C[C@H]2O[C@]1(C)n1c3ccccc3c3c4c(c5c6ccccc6n2c5c31)C(=O)NC4 | 81.9 |
| COc1cc(Nc2c(C#N)cnc3cc(OCCCN4CCN(C)CC4)c(OC)cc23)c(Cl)cc1Cl | 126 |
| Clc1ccc(Nc2nnc(Cc3ccncc3)c3ccccc23)cc1 | 121 |
| CCN(CC)CCCCN1c2ccccc2Oc2ccc(Cl)cc21 | 99.4 |
| Nc1ncnc2c1c(-c1ccc(Oc3ccccc3)cc1)cn2C1CCCC1 | 103 |
| N#C/C(=C(/N)Sc1ccc(N)cc1)c1ccccc1C(F)(F)F | 102 |
| O=C1NC(=O)C(c2cn(CCCn3ccnc3)c3ccccc23)=C1Nc1ccccc1 | 74.9 |
| COc1cc2ncnc(Nc3ccc(OCc4ccccc4)cc3)c2cc1OC | 103 |
| O=C1NC(=O)C(c2c[nH]c3ccccc23)=C1c1c[nH]c2ccccc12 | 105 |
| Nc1nc(Nc2ccc(S(N)(=O)=O)cc2)nn1C(=S)Nc1c(F)cccc1F | 48.7 |
| Nc1nccc(-c2c(-c3ccc(F)cc3)ncn2C2CCNCC2)n1 | 97.4 |
| CCCCc1c(-c2ccc(OC)cc2)[nH]c2nccnc12 | 88.4 |
| CCN(CC)CCNC(=O)c1c(C)[nH]c(/C=C2\C(=O)Nc3ccc(F)cc32)c1C | 62.8 |
| Cn1c2ccccc2c2c3c(c4c5ccccc5n(CCC#N)c4c21)CNC3=O | 79.1 |
| CC#CC(=O)Nc1cc2c(Nc3ccc(F)c(Cl)c3)ncnc2cn1 | 95.6 |
| Cn1cnc2cc3c(Nc4cccc(Br)c4)ncnc3cc21 | 115 |
| Cn1sc(=O)n(Cc2ccccc2)c1=O | 94 |
| CC(=O)O/N=C1\C(=C2\C(=O)Nc3cc(Br)ccc32)Nc2ccccc21 | 81.8 |
| COc1ccc(-c2cnc3c(-c4ccsc4)cnn3c2)cc1 | 81.8 |
| COc1ccc(S(=O)(=O)N(CCO)c2ccccc2CN(C)C/C=C/c2ccc(Cl)cc2)cc1 | 103 |
| CS(=O)c1ccc(-c2nc(-c3ccc(F)cc3)c(-c3ccncc3)[nH]2)cc1 (centres undefined) | 97.3 |
| C#Cc1cccc(Nc2ncnc3cc(OCCOC)c(OCCOC)cc23)c1 | 122 |

| Structure (SMILES) | residual activity [%] |
| --- | --- |
| Cc1ccc(Nc2nccc(N(C)c3ccc4c(C)n(C)nc4c3)n2)cc1S(N)(=O)=O | 125 |
| CS(=O)(=O)CCNCc1ccc(-c2ccc3ncnc(Nc4ccc(OCc5cccc(F)c5)c(Cl)c4)c3c2)o1 | 128 |
| Cc1cc2ncc(-c3ccccc3)nc2cc1C | 103 |
| Cn1nc2c3c(cccc31)C(=O)c1ccccc1-2 | 94.8 |
| CC(C)(C)c1cc(C=C(C#N)C#N)cc(Br)c1O | 95.3 |
| O=C1NC(=O)C(c2cn(CCCO)c3ncccc23)=C1c1cnccn1 | 91.2 |
| CC(C)[C@H](CO)Nc1nc(Nc2cccc(Cl)c2)c2ncn(C(C)C)c2n1 | 99.1 |
| CSc1nc(-c2ccc(F)cc2)c(-c2ccnc(NC(C)c3ccccc3)c2)[nH]1 (centres undefined) | 97.3 |
| Cc1ccc(NC2=CC(=O)c3sc(C)nc3C2=O)cc1 | 114 |
| COc1ccc2c(c1)c(C1=C(c3c[nH]c4ccccc34)C(=O)NC1=O)cn2CCCN(C)C | 99.5 |
| COc1cc2ncc(-c3ccccc3)nc2cc1OC | 88.5 |
| CC(C)n1cnc2c(Nc3cccc(Cl)c3)nc(NCCO)nc21 | 115 |
| N#CC(C#N)=C(N)/C(C#N)=C/c1ccc(O)cc1 | 96.1 |
| Cc1cccc(-c2nc(C(C)(C)C)[nH]c2-c2ccc3c(c2)OCO3)n1 | 99.6 |
| COc1ccc(CNC(=O)Nc2ncc([N+](=O)[O-])s2)cc1 | 105 |
| O=c1cc(-c2cccc3c2Sc2ccccc2S3)oc(N2CCOCC2)c1 | 90.6 |
| Cc1cncc2cccc(S(=O)(=O)N3CCCN(C(=O)CN)C[C@H]3C)c12 | 103 |
| Nc1nc(Nc2ccc(S(N)(=O)=O)cc2)nn1C(=O)c1c(F)cccc1F | 93 |
| CCn1cnc2c(Nc3cccc(Cl)c3)nc(N[C@@H]3CCCC[C@@H]3N)nc21 | 120 |
| Cc1[nH]c(/C=C2\C(=O)Nc3ccc(S(=O)(=O)N(C)c4cccc(Cl)c4)cc32)c(C)c1C(=O)N1CCN(C)CC1 | 103 |
| COc1ccc(COc2ccc(Cc3cnc(N)nc3N)cc2OC)cc1 | 97.9 |
| CCN(CC)CCNC(=O)c1c(C)[nH]c(/C=C2\C(=O)Nc3ccc(Cl)cc32)c1C | 49.6 |
| O=C(Nc1ccc(Cl)cc1)c1ccccc1NCc1ccncc1 | 96 |
| Nc1n[nH]c2nnc(-c3c(-c4ccccc4)nn4ccccc34)cc12 | 99.9 |
| CCC(=O)Nc1ccc2ncnc(Nc3cccc(Br)c3)c2c1 | 84.6 |
| CN(C)CCCn1cc(C2=C(c3c[nH]c4ccccc34)C(=O)NC2=O)c2ccccc21 | 48.6 |

| Structure (SMILES) | residual activity [%] |
| --- | --- |
| O=C1C(Cl)=C(N2C(=O)CCC2=O)C(=O)c2ccccc21 | 104 |
| COc1cc2ncnc(Nc3cccc(Cl)c3)c2cc1OC | 91.3 |
| O=C1Nc2ccccc2/C1=C1/Nc2ccccc2/C1=N\OCCC(O)CO (centres undefined) | 51 |
| CCN(CC)C(=O)c1ccc(Nc2nc(OCC3CCCCC3)c3nc[nH]c3n2)cc1 | 84.7 |
| CO[C@H]1CC2CC[C@@H](C)[C@@](O)(O2)C(=O)C(=O)N2CCCC[C@H]2C(=O)OC([C@H](C)C[C@@H]2CC[C@@H](O)[C@H](OC)C2)CC(=O)[C@H](C)/C=C(\C)[C@@H](O)[C@@H](OC)C(=O)[C@H](C)C[C@H](C)/C=C/C=C/C=C/1C (some centres undefined) | 101 |
| CCN1/C(=C/C(C)=O)Sc2ccc(OC)cc21 | 121 |
| O=C1NC(=O)/C(=C/c2ccc3c(c2)OC(F)(F)O3)S1 | 102 |
| Oc1ccc(Nc2nc(-c3ccc(Cl)cc3)cs2)cc1 | 106 |
| CC[C@@H](CO)Nc1nc(NCc2ccccc2)c2ncn(C(C)C)c2n1 | 120 |
| COc1ccc(C(=O)Nc2sc3c(c2C(N)=O)CCCC3)cc1OC | 98.7 |
| COc1cc2ncnc(N3CCN(C(=O)Nc4ccc(Oc5ccccc5)cc4)CC3)c2cc1OC | 99.8 |
| O=C1Nc2ccccc2/C1=C\c1c(Cl)[nH]c2ccccc12 | 116 |
| O=C1NC(=O)c2c1c1c3ccccc3[nH]c1n1cncc21 | 69 |
| O=C1Nc2cc(Br)ccc2/C1=C1/Nc2ccccc2/C1=N\O | 60.9 |
| Cc1ccc(NC(=O)c2ccc(CN3CCN(C)CC3)cc2)cc1Nc1nc(-c2cccnc2)cs1 | 111 |
| NC(=O)c1cccc(-c2cc(Nc3ccc(OC(F)(F)F)cc3)ncn2)c1 | 101 |
| CN([C@@H](Cc1ccc(OS(=O)(=O)c2cccc3cnccc23)cc1)C(=O)N1CCN(c2ccccc2)CC1)S(=O)(=O)c1cccc2cnccc12 | 105 |
| CC(C)(C)c1nc2c3ccc(F)cc3c3c(=O)[nH]ccc3c2[nH]1 | 50.9 |
| CN(C)S(=O)(=O)c1ccc2c(c1)/C(=C/c1cc3c([nH]1)CCCC3)C(=O)N2 | 105 |
| Oc1cccc(-c2nc(N3CCOCC3)c3oc4ncccc4c3n2)c1 | 100 |
| COc1ccc2c(c[n+](C)c3c4cc5c(cc4ccc23)OCO5)c1OC | 118 |
| Ic1cccc(CSc2nnc(-c3ccncc3)o2)c1 | 99 |
| CC(C)N(CCC(=O)c1ccc2ccccc2c1)Cc1ccccc1 | 101 |
| CC(C)c1nn(-c2c(Cl)cccc2Cl)c2nc(Cc3ccc(OCCO)cc3)nc(O)c12 | 118 |
| C[C@@H]1CCN(C(=O)CC#N)C[C@@H]1N(C)c1ncnc2[nH]ccc12 | 123 |
| CN(C)c1ccc(/C=C2\C(=O)Nc3ccccc32)cc1 | 93.1 |
